Where “and” joins values, the source holds several entries; their conditions need not be identical. Equal values may be shown once.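 96-well plates; 48 h exposure; 5 concentrations. Endpoints by linear interpolation between flanking doses. Not reached: highest tested concentration assigned. Here, GI50 denotes the concentration required for 50% inhibition of growth. TGI: concentration producing complete growth inhibition.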
Tests used:
Assay in all cases: inhibition of tumour cell growth, NCI panel, 48 h
K-562 leukemia = tested on: K-562 leukemia
MOLT-4 leukemia = tested on: MOLT-4 leukemia
IGROV1 ovarian = tested on: IGROV1 ovarian
SK-MEL-5 melanoma = tested on: SK-MEL-5 melanoma
OVCAR-5 ovarian = tested on: OVCAR-5 ovarian
HT29 colon = tested on: HT29 colon
MDA-MB-231 breast = tested on: MDA-MB-231 breast
EKVX NSCLC = tested on: EKVX NSCLC
MDA-MB-435 = tested on: MDA-MB-435
NCI-H522 lung = tested on: NCI-H522 lung

Row | Compound | GI50 (K-562 leukemia) [µM] | TGI (K-562 leukemia) | GI50 (MOLT-4 leukemia) | TGI (MOLT-4 leukemia) | GI50 (IGROV1 ovarian) | TGI (IGROV1 ovarian) | GI50 (SK-MEL-5 melanoma) | TGI (SK-MEL-5 melanoma) | GI50 (OVCAR-5 ovarian) | TGI (OVCAR-5 ovarian) | GI50 (HT29 colon) | TGI (HT29 colon) [µM] | GI50 (MDA-MB-231 breast) | TGI (MDA-MB-231 breast) | GI50 (EKVX NSCLC) | TGI (EKVX NSCLC) | GI50 (MDA-MB-435) | TGI (MDA-MB-435) | GI50 (NCI-H522 lung) | TGI (NCI-H522 lung)
1 | NC(=O)c1cccc(Nc2nccc(Nc3cccc4[nH]ncc34)n2)c1 | 4.53 | > 25 µM | 12.8 µM | > 25 µM | 10.5 µM | > 25 µM | 6.96 µM | > 25 µM | 7.5 µM | > 25 µM | 9.68 µM | > 25 | 8.02 µM | > 25 µM | > 25 µM | > 25 µM | 8.58 µM | > 25 µM | 8.85 µM | > 25 µM
2 | CN1C(=O)N[C@H]2[C@@H]3NC(=O)c4ccc(Br)n4[C@@H]3C[C@]21O | 0.0827 | 1.43 µM | 0.0704 µM | 0.351 µM | 0.0617 µM | 1.6 µM | < 0.0148 µM | 0.0653 µM | 1.03 µM | 6.3 µM | 0.0956 µM | 2.29 | 0.165 µM | 2.69 µM | 0.868 µM | 4.98 µM | 0.156 µM | 1.72 µM | 0.0384 µM | 0.31 µM
3 | COc1ccc(/C=N\Nc2ccc([N+](=O)[O-])cn2)cc1OC | > 100 | > 100 µM | > 100 µM | > 100 µM |  |  | > 100 µM | > 100 µM | > 100 µM | > 100 µM | > 100 µM | > 100 | 6.82 µM | > 100 µM | > 100 µM | > 100 µM | > 100 µM | > 100 µM | > 100 µM | > 100 µM
4 | Cc1ccc(S(=O)(=O)NNC(=O)c2cc(C)c(C)cc2N)cc1 |  | > 100 µM |  | > 100 µM |  | > 100 µM |  | > 100 µM |  | > 100 µM |  | > 100 |  | > 100 µM |  | > 100 µM |  | > 100 µM |  | > 100 µM
5 | COc1ccc2nc3cc([N+](=O)[O-])ccc3c(NCCCN(C)C)c2c1 | 0.0361 | 0.183 µM | 0.0432 µM | 0.68 µM | 0.363 µM | 3.59 µM | 0.187 µM | 0.832 µM | 0.768 µM | 4.51 µM | 0.0397 µM | 1.12 | 0.394 µM | 3.45 µM | 2.25 µM | 7.91 µM | 0.247 µM | 1 µM | 0.0199 µM | 0.0597 µM
6 | CCN(CC)CCCNC(=O)c1c2c(n3ccccc13)C(=O)c1ncccc1C2=O | 0.916 | > 100 µM | 0.604 µM | > 100 µM |  |  | 0.275 µM | 1.24 µM | 1.18 µM | 4.9 µM | 0.248 µM | 1.54 | 0.404 µM | 9.73 µM | 1.31 µM | 3.11 µM | 0.224 µM | 0.506 µM | 0.515 µM | 2.32 µM
7 | CC1(CCC(=O)OC2CCCCC2)OCCO1 |  | > 100 µM |  | > 100 µM |  | > 100 µM |  | > 100 µM |  | > 100 µM |  | > 100 |  | > 100 µM |  | > 100 µM |  | > 100 µM |  | > 100 µM
8 | CNC(=O)Cc1nc(-c2cccc(NS(=O)(=O)c3c(F)cccc3F)c2F)c(-c2ccnc(Nc3ccccc3)n2)s1 | 1.09 | > 50 µM | 12.5 µM | > 50 µM | 0.462 µM | > 19.6 µM | 0.0866 µM | > 19.8 µM | 2.85 µM | > 50 µM | 0.0327 µM | > 50 | 1.04 µM | > 15.3 µM | 22.4 µM | > 50 µM | 0.0445 µM | > 44 µM | 7.22 µM | > 50 µM
9 | O=C(/C=C/c1ccccc1)n1c(-c2ccc(Cl)cc2)nc2ccccc21 | 2.09 | 11.8 µM | 1.13 µM | 6.73 µM | 1.95 µM | 4.63 µM | 1.64 µM | 3.12 µM | 1.74 µM | 4.21 µM | 1.51 µM | 3.71 | 1.88 µM | 5.18 µM |  |  | 1.11 µM | 3.04 µM | 1.23 µM | 2.64 µM
10 | C=C1CCC2C(C)(COC(=O)CC)C(OC(=O)CC)CCC2(C)C1C/C=C1/C(=O)OCC1OC(=O)CC (stereo not drawn) | 1.79 | 10.4 µM | 2.62 µM | 11.6 µM | 1.9 µM | 3.69 µM | 2.08 µM | 4.39 µM | 2.45 µM | 5.35 µM | 0.987 µM | 2.24 | 2.31 µM | 5.19 µM | 7.96 µM | 22.1 µM | 1.68 µM | 3.7 µM | 0.346 µM | 1.7 µM
11 | COC(=O)c1cc(O)c2c(c1C(=O)OC)C[C@H]1[C@@H]3CC=C4C[C@@H](O)CC[C@]4(C)[C@H]3CC[C@]21C | 2.41 | 7.77 µM | 2.22 µM | 5.56 µM | 3.89 µM | 15.9 µM |  |  | 4.82 µM | 23.9 µM | 2.74 µM | 7 | 2.52 µM | 7.41 µM | 3.29 µM | 21.7 µM | 3.01 µM | 20.6 µM | 2.17 µM | 5.44 µM
12 | Cc1sc2c(c1C)C(c1ccc(Cl)cc1)=N[C@@H](CC(=O)OC(C)(C)C)c1nnc(C)n1-2 |  | 37.5 µM and 15.7 µM | 1.61 µM and 1.81 µM | 23 µM and 17.8 µM | 0.808 µM and 0.645 µM | 25 µM and 18.9 µM | 0.0966 µM and 0.337 µM | 4.27 µM and 14.2 µM | 11.9 µM and 10.4 µM | 25 µM and 22.7 µM | 0.209 µM and 0.0986 µM | 14.9 | 0.714 µM and 0.304 µM | 26 µM and 18.5 µM | 3.17 µM and 1.18 µM | 20.5 µM and 18.2 µM | 0.348 µM and 0.135 µM | 20.3 µM and 17 µM | 0.179 µM and 0.0566 µM | 7.38 µM and 11.6 µM
13 | O=Cc1cccc2c1Oc1c(cccc1C(=O)O)S2 |  |  |  | 68.1 µM |  | > 100 µM |  | > 100 µM |  | > 100 µM |  | > 100 |  | > 100 µM |  | > 100 µM |  | > 100 µM |  | > 100 µM
14 | O=C(OCc1ncc(-c2ccc(C(F)(F)F)cc2)c(NC2CCCCCC2)n1)c1c(F)c(F)c(F)c(F)c1F | 4.86 | 30.2 µM | 3.42 µM | 11.8 µM | 2.86 µM | 7.28 µM | 16 µM | 30.3 µM | 20 µM | 36.5 µM | 13.8 µM | 40 | 9.93 µM | 23.2 µM |  |  | 15.8 µM | 32.6 µM | 3.9 µM | 14.6 µM

From PubChem BioAssay (NCI)
